Measurements reported in US20050152845A1, “Amorphous fluticasone 2-furoate, pharmaceutical compositions thereof and its conversion to the crystalline unsolvated form” (priority 2002, published 2005).

Experiments:
NFκB = test: Transrepression reporter assay (firefly luciferase, NFκB promoter, TNFα stimulated) in A549 cells; assay type: cell-based; conditions: Homo sapiens, 1 h compound then 0.5ng/ml TNFα 15 hours, read-out: Transrepression (NFκB) ED50
Description: (§1) The glucocorticoid receptor (GR) can function in at least two distinct mechanisms, by upregulating gene expression through the direct binding of GR to specific sequences in gene promoters, and by downregulating gene expression that is being driven by other transcription factors (such as NFκB or AP-1) through their direct interaction with GR.
The first cell line contains the firefly luciferase reporter gene under the control of a synthetic promoter that specifically responds to activation of the transcription factor NFκB when stimulated with TNFα. The second cell line contains the renilla luciferase reporter gene under the control of a synthetic promotor that comprises 3 copies of the consensus glucocorticoid response element, and which responds to direct stimulation by glucocorticoids. Simultaneous measurement of transactivation and transrepression was conducted by mixing the two cell lines in a 1:1 ratio in 96 well plate (40,000 cells per well) and growing overnight at 37° C. Test compounds were dissolved in DMSO, and added to the cells at a final DMSO concentration of 0.7%. […] Dose response curves were constructed from which EC50 values were determined.

[1] = molecular target: T1, glucocorticoid receptor (GR) (Homo sapiens, UniProt P04150); test: Transactivation reporter assay (renilla luciferase, glucocorticoid response element) in A549 cells; assay type: cell-based; conditions: 1 h compound then 0.5ng/ml TNFα 15 hours, read-out: Transactivation (GR) ED50
T1 construct: two reporter plasmids have been generated and introduced separately into A549 human lung epithelial cells by transfection; endogenous in cells; host or cells: A549 human lung epithelial cells stably carrying a renilla luciferase reporter with 3 copies of the consensus GRE
T1 sequence (P04150 1-777): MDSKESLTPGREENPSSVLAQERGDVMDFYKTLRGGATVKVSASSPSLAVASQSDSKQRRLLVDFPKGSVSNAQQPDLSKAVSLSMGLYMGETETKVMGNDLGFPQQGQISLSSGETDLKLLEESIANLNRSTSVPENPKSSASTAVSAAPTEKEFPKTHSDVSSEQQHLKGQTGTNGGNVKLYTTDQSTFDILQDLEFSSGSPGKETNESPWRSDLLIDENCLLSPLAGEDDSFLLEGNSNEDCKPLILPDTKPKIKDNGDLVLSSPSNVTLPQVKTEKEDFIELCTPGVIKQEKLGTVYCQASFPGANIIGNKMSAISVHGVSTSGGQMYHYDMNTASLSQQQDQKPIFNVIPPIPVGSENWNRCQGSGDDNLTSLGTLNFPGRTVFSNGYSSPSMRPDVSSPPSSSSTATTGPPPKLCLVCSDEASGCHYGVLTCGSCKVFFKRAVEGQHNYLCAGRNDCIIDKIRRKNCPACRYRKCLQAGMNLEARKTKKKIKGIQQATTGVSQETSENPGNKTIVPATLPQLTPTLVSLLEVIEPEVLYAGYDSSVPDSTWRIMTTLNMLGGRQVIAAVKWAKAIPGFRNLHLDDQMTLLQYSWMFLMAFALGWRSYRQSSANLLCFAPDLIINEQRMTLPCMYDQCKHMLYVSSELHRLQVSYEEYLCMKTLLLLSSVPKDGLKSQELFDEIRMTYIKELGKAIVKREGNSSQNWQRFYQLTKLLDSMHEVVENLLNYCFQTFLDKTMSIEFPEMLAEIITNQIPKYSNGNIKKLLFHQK
Description: as §1
In a variant of the above method, to monitor these functions, two reporter plasmids have been generated and introduced separately into A549 human lung epithelial cells by transfection. The first cell line contains the firefly luciferase reporter gene under the control of a synthetic promoter that specifically responds to activation of the transcription factor NFκB when stimulated with TNFα. The second cell line contains the renilla luciferase reporter gene under the control of a synthetic promotor that comprises 3 copies of the consensus glucocorticoid response element, and which responds to direct stimulation by glucocorticoids. […] After incubation for 1 h 0.5ng/ml TNFα (R&D Systems) was added and after a further 15 hours at 37° C., the levels of firefly and renilla luciferase were measured using the Packard Firelite kit following the manufacturers' directions. Dose response curves were constructed from which EC50 values were determined.

glucocorticoid receptor = molecular target: T2, glucocorticoid receptor (Homo sapiens, UniProt P04150); test: In vitro functional glucocorticoid assays, metabolite versus parent; assay type: cell-based
T2 construct: endogenous in cells
T2 sequence (P04150 1-777): T1 sequence (P04150 1-777)
Protocol: Compound (I) undergoes highly efficient hepatic metabolism to yield the 17-β carboxylic acid (X) as the sole major metabolite in rat and human in vitro systems.
The functional assay was based on that described by K. P. Ray et al., Biochem J. (1997), 328, 707-715. A549 cells stably transfected with a reporter gene containing the NF-κB responsive elements from the ELAM gene promoter coupled to sPAP (secreted alkaline phosphatase) were treated with test compounds at appropriate doses for 1 hour at 37° C. The cells were then stimulated with tumour necrosis factor (TNF, 10ng/ml) for 16 hours, at which time the amount of alkaline phosphatase produced is measured by a standard colourimetric assay. Dose response curves were constructed from which EC50 values were estimated.
In a variant of the above method, to monitor these functions, two reporter plasmids have been generated and introduced separately into A549 human lung epithelial cells by transfection. […] After incubation for 1 h 0.5ng/ml TNFα (R&D Systems) was added and after a further 15 hours at 37° C., the levels of firefly and renilla luciferase were measured using the Packard Firelite kit following the manufacturers' directions. Dose response curves were constructed from which EC50 values were determined.

lung eosinophilia = test: Ovalbumin sensitised Brown Norway rat eosinophilia model; assay type: in vivo; conditions: single dose of 30 μg, intra-tracheal suspension in saline 30 min prior to ovalbumin challenge
Protocol: Pharmacological activity in vivo was assessed in an ovalbumin sensitised Brown Norway rat eosinophilia model. This model is designed to mimic allergen induced lung eosinophilia, a major component of lung inflammation in asthma.

[2] = Pharmacokinetics after intra-tracheal dry powder dosing in the pig; assay type: in vivo; conditions: 1 mg intra-tracheal, LLOQ 10 pg/mL compound (I), 20pg/mL fluticasone propionate
Protocol: Serial blood samples were taken for up to 8 h following dosing.

thymus weight = test: Rat model of thymus involution; assay type: in vivo; conditions: 3 daily IT doses of 100 μg

EC50 (NFκB) [nM] | EC50 [1] [nM] | fold less active than the parent compound (glucocorticoid receptor) [fold] | time after dosing up to which quantifiable in plasma [2] | reduction of thymus weight (thymus weight) [%] | Compound | inhibition of lung eosinophilia (lung eosinophilia) [%]
> 1000 | > 250 | > 1000 | – | – | C[C@@H]1CCC2C3C[C@H](F)C4=CC(=O)C=C[C@]4(C)[C@@]3(F)[C@@H](O)C[C@]2(C)[C@@]1(OC(=O)c1ccco1)C(=O)O (stereo partly drawn) [Metabolite (X)] | –
– | – | – | up to 8 hours | 78 | CCC(=O)O[C@]1(C(=O)SCF)[C@H](C)C[C@H]2[C@@H]3C[C@H](F)C4=CC(=O)C=C[C@]4(C)[C@@]3(F)[C@@H](O)C[C@@]21C [Fluticasone propionate, 6α, 9α-Difluoro-17α-(1-oxopropoxy)-11β-hydroxy-16α-methyl-3-oxo-androsta-1,4-diene-17β-carbothioic acid S-fluoromethyl ester, reference compound] | 41
